Numbered stars: 1 amine (or outer) side, 2 acyl side, 3 side chain; on linkers, the order of the positions; unused ones are H or OH. Bridge positions count the residues as written; N and C are the ends. Square brackets hold non-standard residues; d marks the D form. Peptide text beside a SMILES is read from it. * marks the point of attachment. DOTA = O=C(O)CN1CCN(CC(=O)O)CCN(CC(=O)*)CCN(CC(=O)O)CC1; TATA = O=C(CC[*:1])N1CN(C(=O)CC[*:2])CN(C(=O)CC[*:3])C1; X1 = O=C(O)CN1CCN(CC(=O)O)CCN([C@H](CCC(=O)*)C(=O)O)CC1; 1Nal = N[C@@H](Cc1cccc2ccccc12)C(=O)O; 2Nal = N[C@@H](Cc1ccc2ccccc2c1)C(=O)O; Hyp = O=C(O)[C@@H]1C[C@@H](O)CN1; hArg = N=C(N)NCCCC[C@H](N)C(=O)O
Experiments:
[1] = Oxidation stability in H2O2 (radio-HPLC)
Description: To avoid a too rapid degradation of radiolabeled peptides, a low H2O2 concentration of 0.0012% was chosen. […] In this context, there are three further thioether functionalities in each peptide due to the cyclization of the Cys residues with TATA. In Figure , the curves for the time-dependent degradation of the intact radioligands are depicted, from which the respective half-lives were calculated.
The stability toward oxidizing conditions was assessed with H2O2. For this purpose, the radioligands (2 nmol, 48 μL of labeling mixture) were treated with H2O2 (2 μL of 0.03%, final concentration of 0.0012%) at ambient temperature. At distinct time points (3, 5, and 7 h), an aliquot of 2 μL was withdrawn and diluted with 48 μL of a mixture named “Supersol,” which consists of 20% ethanol, 0.5% Triton X-100, 5 mM EDTA, 0.5 mM o-phenanthroline, and 0.1% saponin. […] The resulting solutions were analyzed by radio-HPLC (same system as that used for analyzing the ^64Cu-labelings).

[2] = tested on: HT-1376-derived tumor xenograft model; experiment: Small animal PET/CT imaging; set-up: species or system mice; conditions: mouse, in vivo
Description: (§1) All animal experiments were performed following the protocols evaluated and approved by the Landesdirektion Sachsen, Referat 25 – Veterinärwesen, Lebensmittelüberwachung and Pharmazie (09105 Chemnitz, Germany, ethics approval number: 25-5131/562/52). HT-1376- and 5637-derived tumor xenograft models were established in NMRI nude mice (Rj: NMRI-Foxn1nu/nu, Charles River Laboratories, Sulzfeld, Germany) by subcutaneous injection of 5 × 10^6 cells in 100 μL of PBS containing 50% (v/v) Matrigel (Corning Life Sciences, Amsterdam, The Netherlands).
(§2) When the tumor volume reached 200 mm^3, PET experiments with radiotracers were performed. Radiolabeling of the ligands was performed as described previously with an apparent molar activity of 25 MBq/nmol. The radioligand stock solution (pH 6.5 – 7.5) was diluted in 0.9% NaCl, and 200 μL containing ∼9 MBq ([…]) was injected per mouse intravenously into a lateral tail vein. For blocking of target-specific radioligand binding, 75 nmol of blocking substance (1d) was administered simultaneously with the radioligand. Coincidences were recorded continuously in a 2 h PET-scan starting with the injection. Additionally, a CT scan was performed for anatomical referencing and attenuation correction. PET/CT imaging, reconstruction, and tissue delineation were carried out as described previously.

[3] = Small animal PET/CT imaging; set-up: species or system mice; conditions: mouse, in vivo
Description: as §1, §2

[4] = target: T1, immobilized human nectin-4 (Homo sapiens, UniProt Q96NY8); experiment: SPR analysis of binding kinetics
T1 construct: close to the value determined for the complete extracellular domain of nectin-4 (0.94 nM); purchased R&D Systems 2659-N4
T1 sequence (Q96NY8 32-349 limits assumed): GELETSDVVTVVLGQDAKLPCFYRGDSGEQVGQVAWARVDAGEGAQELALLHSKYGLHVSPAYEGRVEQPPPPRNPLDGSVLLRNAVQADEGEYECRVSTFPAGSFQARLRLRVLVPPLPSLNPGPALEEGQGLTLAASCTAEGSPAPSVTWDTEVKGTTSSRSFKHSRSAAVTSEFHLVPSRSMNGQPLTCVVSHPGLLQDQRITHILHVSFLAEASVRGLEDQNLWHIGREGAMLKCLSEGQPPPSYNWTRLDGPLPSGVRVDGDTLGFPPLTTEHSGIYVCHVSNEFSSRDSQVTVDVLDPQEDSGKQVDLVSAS
Description: For this purpose, recombinant human nectin-4 was covalently immobilized on a CM5 sensor chip by EDC/NHS coupling. For analyses, the buffer composition (HBS-P+, pH 7.4) was similar to that of the FA assay; however, DMSO was completely omitted (1% DMSO for the FA assay).
The SPR analyses were carried out on a Biacore T200 (GE Healthcare, Chicago, IL, USA) at 25 °C using CM5 sensor chips (Cytiva) and HBS-P+ as running buffer (Cytiva) at a flow of 30 μL/min unless otherwise specified and a data collection rate of 10 Hz. All flow cells (FC) were normalized, and functionalization was performed using an amine coupling Kit (Cytiva). […] Binding analyses were performed by a single-cycle kinetic on both FC. Two start-up cycles were performed at the beginning of each experimental set, comprising the injection of bicyclic peptide (50 nM) and analysis on both FC, followed by regeneration. Binding analysis for the bicyclic peptides was performed by consecutive injection of five increasing concentrations (120 s contact time for each concentration), followed by 600 s dissociation time and analysis on both FC. The regeneration was performed by sequential injection of 10 mM NaOAc (pH 5.5) for 60 s, washing the needle using HBS-P+, injection of 10 mM NaOAc (pH 5.5) for 60 s, 600 s waiting, four injections of HBS-P+ (60 s), and a final 600 s waiting for stabilization. Blank runs using only buffer (HBS-P+) instead of the sample were carried out to obtain double-referenced chromatograms. Binding analyses were performed unless otherwise stated in a concentration range between 0.16–100 nM and 1.6–1000 nM (5-fold dilution series) and analyzed in triplicate. The data were analyzed using the Biacore Evaluation software 3.2.1. […] Data were fitted to a 1:1 binding model.

[5] = target: T2, recombinant human nectin-4 (Homo sapiens, UniProt Q96NY8); experiment: FA-based competitive binding assay with probe 1a; conditions: competitive binding curve, variable slope
T2 construct: close to the value determined for the complete extracellular domain of nectin-4 (0.94 nM); purchased R&D Systems 2659-N4
T2 sequence (Q96NY8 32-349 limits assumed): T1 sequence (Q96NY8 32-349 limits assumed)
Description: For the competitive binding assay, a constant concentration of probe 1a (1 nM) and of nectin-4 (20 nM) was used, and the concentration of the competitors was varied over at least 3 orders of magnitude. […] Analysis of the curves by nonlinear regression according to dose–response inhibition with variable slope, as implemented in GraphPad Prism (see Experimental section), provided the IC50 value for displacing the probe from nectin-4.
All measurements were conducted at 37 °C over 1200 s (interval of 37 s) using a Cytation 5 multimode microplate reader (BioTek Instruments, Software Gen 5) and black 96-well microplates (BRANDplates with F-bottom wells). Experiments were conducted at an excitation wavelength of 540 nm and an emission wavelength of 620 nm. The FA (r) was calculated by Gen 5 software from the measured parallel and perpendicular fluorescence intensities (I ∥ and I ⊥, respectively) according to eq using a G factor of 0.87 (preset value). r=I∥−G×I⊥/I∥+2G×I⊥ 1
All further data analyses were conducted with GraphPad Prism (version 10.4.1, GraphPad Software, San Diego, CA, USA). The assay mixture (100 μL) contained an aqueous solution (99 μL) and DMSO (1%, v/v, 1 μL).
For the competitive binding assay, fixed concentrations of probe 1a (1 nM) and recombinant human nectin-4 (20 nM) and 10 concentrations of nonlabeled peptide (e.g., […] prepared as serial 1:1 dilution) were used (two separate experiments, each performed in duplicate). The corresponding stock solutions of 1a (2.5 nM) and nectin-4 (50 nM) were prepared in HEPES buffer, while the stock solutions of the nonlabeled peptides were prepared in 5% DMSO/HEPES buffer. nectin-4 (40 μL) and 1a (40 μL) were added to the wells, and the competition was started by the addition of the nonlabeled peptides (20 μL). The FA values were averaged over the time period of 1200 s, and plots of FA = f([peptide]) were analyzed by nonlinear regression according to the model “[inhibitor] vs. response – Variable slope (four parameters)” as implemented in GraphPad Prism. […] Therefore, the lower FA plateau was constrained to the FA value of probe 1a in the absence of nectin-4 and the competitor, which was recorded in each experiment.

Compound: CCSC[C@@H]1NC(=O)[C@@H]2CSCCC(=O)N3CN(CN(C3)C(=O)CCSC[C@H](NC(=O)CC[C@H](C(=O)O)N3CCN(CC(=O)O)CCN(CC(=O)O)CC3)C(=O)N3CCC[C@H]3C(=O)N[C@@H](Cc3cccc4ccccc34)C(=O)N[C@H](CC(=O)O)C(=O)N2)C(=O)CCSC[C@@H](C(N)=O)NC(=O)[C@H](Cc2c[nH]c3ccccc23)NC(=O)[C@@H]2C[C@@H](O)CN2C(=O)[C@@H]2CCCN2C(=O)[C@H]([C@@H](C)O)NC(=O)[C@H](CO)NC(=O)[C@H](Cc2c[nH]c3ccccc23)NC(=O)[C@H](CC(=O)O)NC(=O)[C@H](CCCCNC(=N)N)NC1=O [[^64Cu]Cu-7, metal not drawn] (X1-CP[1Nal][dD]CC(Et)[hArg]DWSTP[Hyp]WC-NH2; linker 1-5-15 via TATA)
- half-life ([1]; half-life of intact radiolabeled peptide (T1/2), 0.0012% H2O2, 25 °C, one-phase decay): 529 min

Compound: CSCC[C@@H]1NC(=O)[C@@H]2CSCCC(=O)N3CN(CN(C3)C(=O)CCSC[C@H](NC(=O)CC[C@H](C(=O)O)N3CCN(CC(=O)O)CCN(CC(=O)O)CC3)C(=O)N3CCC[C@H]3C(=O)N[C@@H](Cc3cccc4ccccc34)C(=O)N[C@H](CC(=O)O)C(=O)N2)C(=O)CCSC[C@@H](C(N)=O)NC(=O)[C@H](Cc2c[nH]c3ccccc23)NC(=O)[C@@H]2C[C@@H](O)CN2C(=O)[C@@H]2CCCN2C(=O)[C@H]([C@@H](C)O)NC(=O)[C@H](CO)NC(=O)[C@H](Cc2c[nH]c3ccccc23)NC(=O)[C@H](CC(=O)O)NC(=O)[C@H](CCCNC(=N)N)NC1=O [[^64Cu]Cu-10, metal not drawn] (X1-CP[1Nal][dD]CMRDWSTP[Hyp]WC-NH2; linker 1-5-15 via TATA)
- half-life [1]: 208 min

Compound: CSCC[C@@H]1NC(=O)[C@@H]2CSCCC(=O)N3CN(CN(C3)C(=O)CCSC[C@H](NC(=O)CN3CCN(CC(=O)O)CCN(CC(=O)O)CCN(CC(=O)O)CC3)C(=O)N3CCC[C@H]3C(=O)N[C@@H](Cc3ccc4ccccc4c3)C(=O)N[C@H](CC(=O)O)C(=O)N2)C(=O)CCSC[C@@H](C(N)=O)NC(=O)[C@H](Cc2c[nH]c3ccccc23)NC(=O)[C@@H]2C[C@@H](O)CN2C(=O)[C@@H]2CCCN2C(=O)[C@H]([C@@H](C)O)NC(=O)[C@H](CO)NC(=O)[C@H](Cc2c[nH]c3ccccc23)NC(=O)[C@H](CC(=O)O)NC(=O)[C@H](CCCNC(=N)N)NC1=O [[^68Ga]Ga-8c, metal not drawn] ({DOTA}-CP[2Nal][dD]CMRDWSTP[Hyp]WC-NH2; linker 1-5-15 via TATA)
- Percent fast [%] [2]: 78.28 ±1.97%
- body retention at 2 h p.i. [2]: 75%
- time of highest tumor uptake [2]: 8.5 min
- half-life ([3]; Blood half life fast [min]): 1.44 ± 0.19 min
- half-life ([3]; Blood half life slow [min]): 38.8 ± 2.49 min

Compound: CSCC[C@@H]1NC(=O)[C@@H]2CSCCC(=O)N3CN(CN(C3)C(=O)CCSC[C@H](NC(=O)CN3CCN(CC(=O)O)CCN(CC(=O)O)CCN(CC(=O)O)CC3)C(=O)N3CCC[C@H]3C(=O)N[C@@H](Cc3ccc4ccccc4c3)C(=O)N[C@H](CC(=O)O)C(=O)N2)C(=O)CCSC[C@@H](C(=O)O)NC(=O)[C@H](Cc2c[nH]c3ccccc23)NC(=O)[C@@H]2C[C@@H](O)CN2C(=O)[C@@H]2CCCN2C(=O)[C@H]([C@@H](C)O)NC(=O)[C@H](CO)NC(=O)[C@H](Cc2c[nH]c3ccccc23)NC(=O)[C@H](CC(=O)O)NC(=O)[C@H](CCCNC(=N)N)NC1=O [[^68Ga]Ga-8d, metal not drawn, reference compound] ({DOTA}-CP[2Nal][dD]CMRDWSTP[Hyp]WC-OH; linker 1-5-15 via TATA)
- Percent fast [%] [2]: 83.87 ±1.35%
- body retention at 2 h p.i. [2]: 35%
- time of highest tumor uptake [2]: 0.6 min
- half-life ([3]; Blood half life fast [min]): 1.5 ± 0.15 min
- half-life ([3]; Blood half life slow [min]): 37.1 ± 2.19 min

Compound: CSCC[C@@H]1NC(=O)[C@@H]2CSCCC(=O)N3CN(CN(C3)C(=O)CCSC[C@H](NC(=O)CC[C@H](C(=O)O)N3CCN(CC(=O)O)CCN(CC(=O)O)CC3)C(=O)N3CCC[C@H]3C(=O)N[C@@H](Cc3ccc4ccccc4c3)C(=O)N[C@H](CC(=O)O)C(=O)N2)C(=O)CCSC[C@@H](C(N)=O)NC(=O)[C@H](Cc2c[nH]c3ccccc23)NC(=O)[C@@H]2C[C@@H](O)CN2C(=O)[C@@H]2CCCN2C(=O)[C@H]([C@@H](C)O)NC(=O)[C@H](CO)NC(=O)[C@H](Cc2c[nH]c3ccccc23)NC(=O)[C@H](CC(=O)O)NC(=O)[C@H](CCCCNC(=N)N)NC1=O [compound 9]
- kon ([4]; HBS-P+ pH 7.4, 25 °C, ±SEM, read-out: k on (SPR, *10^6 M^–1 s^–1)): 1.69e+07 M⁻¹ s⁻¹
- fold increase in k off vs 1e ([4]; SPR): 18 fold
- koff ([4]; pH 7.4, HBS-P+ pH 7.4, 25 °C, ±SEM, read-out: k off (SPR, *10^–3 s^–1)): 0.0765 s⁻¹
- Hill coefficient n [5]: 1.57

Reference: PMC12557367, ““Precision on Two Wheels”–Structural Refinement of ^64Cu- and ^68Ga-Labeled Bicyclic Peptides Targeting Nectin‑4 for Improved Tumor Imaging: From Preclinical Development to First-in-Human Application” (Journal of Medicinal Chemistry, 2025)
